Test [1] has as its system Drosophila. As to the kind of experiment: Protection against fragile X syndrome phenotypes in Fmr1 null mutant Drosophila Fmr1'3/TM6C assessed as embryo viability at 40 uM at 25 degC by flow cytometry relative to untreated homozygous embryos. It is filed as functional. In general terms: In flow cytometry, cells or beads pass a laser one at a time.
For test [2], the system named is Drosophila. The test is described as follows: Protection against fragile X syndrome phenotypes in laboratory prepared food feeded Fmr1 null mutant Drosophila Fmr1'3/TM6C assessed as homozygous Fmr1-/- embryo viability at 40 uM at 25 degC by flow cytometry relative to untreated homozygous embryos fed with only laboratory prepared food. The test is classed as functional.

Test [3] deals with Drosophila. As to the kind of experiment: Protection against fragile X syndrome phenotypes in laboratory prepared food feeded Fmr1 null mutant Drosophila Fmr1'3/TM6C assessed as homozygous Fmr1-/- embryo viability at 20 uM at 25 degC by flow cytometry relative to untreated homozygous embryos fed with only laboratory prepared food. The test is classed as functional.
In test [4] the test system is Drosophila. As to the kind of experiment: Protection against fragile X syndrome phenotypes in laboratory prepared food feeded Fmr1 null mutant Drosophila Fmr1'3/TM6C assessed as homozygous Fmr1-/- embryo viability at 5 uM at 25 degC by flow cytometry relative to untreated homozygous embryos fed with only laboratory prepared food. It is filed as functional.
Test [5] concerns Drosophila. As to the kind of experiment: Suppression of Futsch protein overexpression in head lysates of laboratory prepared food feeded Fmr1 null mutant Drosophila Fmr1'3/TM6C fragile X syndrome model at 40 uM by Western blot. It is filed as functional, organism-based.
Test [6] deals with Drosophila. The test is described as follows: Suppression of Futsch protein overexpression in head lysates of laboratory prepared food feeded Fmr1 null mutant Drosophila Fmr1'3/TM6C fragile X syndrome model at 40 uM in presence of Scopolamine by Western blot. It is filed as functional, organism-based. A general note: In western blotting, separated proteins are transferred to a membrane and probed.

For test [7], the system named is Drosophila. As to the kind of experiment: Suppression of beta-lobe midline crossing deffect in mushroom bodies of laboratory prepared food feeded Fmr1 null mutant Drosophila Fmr1'3/TM6C fragile X syndrome model at by Fas2 staining based confocal microscopy. The test is classed as functional.
For test [8], the system named is Drosophila. As to the kind of experiment: Cytoprotection against glutamate-induced toxicity in laboratory prepared food feeded Fmr1 null mutant Drosophila Fmr1'3/TM6C fragile X syndrome model assessed as embryo viability at 40 uM in presence of 40 uM GABAB receptor antagonist CGP-54626 by flow cytometry relative to untreated embryos. The test is classed as functional, organism-based.

Test [9] has as its system Drosophila. The test is described as follows: Cytoprotection against glutamate-induced toxicity in laboratory prepared food feeded Fmr1 null mutant Drosophila Fmr1'3/TM6C fragile X syndrome model assessed as embryo viability at 40 uM by flow cytometry relative to untreated embryos. The test is classed as functional, organism-based.
Test [10] relates to Drosophila. The test is described as follows: Cytoprotection against glutamate-induced toxicity in laboratory prepared food feeded Fmr1 null mutant Drosophila Fmr1'3/TM6C fragile X syndrome model assessed as genetic segregation ratio at 40 uM by flow cytometry relative to untreated embryos. It is filed as functional.
For test [11], the system named is Drosophila. The test is described as follows: Cytoprotection against glutamate-induced toxicity in laboratory prepared food feeded Fmr1 null mutant Drosophila Fmr1'3/TM6C fragile X syndrome model assessed as embryo viability at 40 uM in presence of GABAB receptor antagonist CGP-54626 by flow cytometry relative to untreated embryos. The test is classed as functional.

Test [12] deals with Drosophila. As to the kind of experiment: Suppression of glutamate-induced Futsch protein overexpression in head lysates of laboratory prepared food feeded Fmr1 null mutant Drosophila Fmr1'3/TM6C fragile X syndrome model at 40 uM by Western blot. The test is classed as functional, organism-based.
Test [13] has as its system Drosophila. The test is described as follows: Suppression of glutamate-induced beta-lobe midline crossing deffect in mushroom bodies of laboratory prepared food feeded Fmr1 null mutant Drosophila Fmr1'3/TM6C fragile X syndrome model at 40 uM by Fas2 staining based confocal microscopy. The test is classed as functional.
Test [14] relates to Drosophila. The test is described as follows: Suppression of glutamate-induced beta-lobe midline crossing deffect in mushroom bodies of laboratory prepared food feeded Fmr1 null mutant Drosophila Fmr1'3/TM6C fragile X syndrome model assessed as incidence of severe deffects at 40 uM by Fas2 staining based confocal microscopy. The test is classed as functional.
In test [15] the test system is Drosophila. The test is described as follows: Suppression of glutamate-induced courtship behavior deffect in laboratory prepared food feeded male Fmr1 null mutant Drosophila Fmr1'3/TM6C fragile X syndrome model assessed as courtship behavior towards female flies at 40 uM for 10 mins by courtship index assay. The test is classed as functional, organism-based.
Test [16] deals with Drosophila. As to the kind of experiment: Protection against fragile X syndrome phenotypes in laboratory prepared food feeded Fmr1 null mutant Drosophila Fmr1'3/TM6C assessed as homozygous Fmr1-/- embryo viability at 10 uM at 25 degC by flow cytometry relative to untreated homozygous embryos fed with only laboratory prepared food. The test is classed as functional.
Test [17] deals with Drosophila. The test is described as follows: Cytoprotection against glutamate-induced toxicity in laboratory prepared food feeded Fmr1 null mutant Drosophila Fmr1'3/TM6C fragile X syndrome model assessed as embryo viability at 80 uM by flow cytometry relative to untreated embryos. It is filed as functional, organism-based.
Test [18] relates to Drosophila. As to the kind of experiment: Suppression of glutamate-induced beta-lobe midline crossing deffect in mushroom bodies of laboratory prepared food feeded Fmr1 null mutant Drosophila Fmr1'3/TM6C fragile X syndrome model at 80 uM by Fas2 staining based confocal microscopy. It is filed as functional, organism-based.
Test [19] concerns Drosophila. The test is described as follows: Suppression of glutamate-induced courtship behavior deffect in laboratory prepared food feeded male Fmr1 null mutant Drosophila Fmr1'3/TM6C fragile X syndrome model assessed as courtship behavior towards female flies at 80 uM for 10 mins by courtship index assay. The test is classed as functional, organism-based.

Data on 17 molecules can be found in ChEMBL document CHEMBL1212701, “Identification of small molecules rescuing fragile X syndrome phenotypes in Drosophila” (2008).

Active and inactive are the calls of the source. No cut-off for these calls is given here.

For `C/C=C(/C(=C/C)c1ccc(O)cc1)c1ccc(O)cc1` [DIENESTROL], the Activity turned out to be 33% in test [1] and 71.3% in test [2].

`C[C@@H](CO)NC(=O)[C@@H]1C=C2c3cccc4[nH]cc(c34)C[C@H]2N(C)C1.O=C(O)/C=C\C(=O)O` [ERGONOVINE MALEATE]: the Activity in test [1] was 33%; in test [3], 69.85%.

Regarding `COC(=O)[C@H]1[C@H]2C[C@@H]3c4[nH]c5cc(OC)ccc5c4CCN3C[C@H]2C[C@@H](OC(=O)c2cc(OC)c(OC)c(OC)c2)[C@@H]1OC` [RESERPINE], the Activity in test [1] was determined as 25%.

Consider `Cc1cc(O)cc(C)c1Cl` [CHLOROXYLENOL], for which the Activity in [1] is 42%.

`CCN(CC)CCOc1ccc(C(=C(Cl)c2ccccc2)c2ccccc2)cc1` [CLOMIPHENE]: the Activity in test [1] came to 25%; in test [4] it was 54.96%.

As to `Cl.NCC(=O)c1ccccc1` [PHENACYLAMINE HYDROCHLORIDE], the Activity in [1] was 25%.

As to `CC[C@@H]1C(=O)OC[C@@H]1Cc1cncn1C.O=[N+]([O-])O` [PILOCARPINE NITRATE], the Activity is reported as 33% in [1], 68.5% in [4] and 69% in [7]. Besides, the result in [5] was Active. In test [6], the result was inactive.

On to `CN1[C@@H]2CC[C@H]1C[C@@H](OC(c1ccccc1)c1ccccc1N)C2` (stereo not given in full) [AMINOBENZTROPINE], for which the Activity in test [1] is reported as 25%; in [2], 66.38%. In addition, the outcome in test [5] and in test [8] was Active.

For the molecule `C[C@H](NC[C@H](O)CP(=O)(O)CC1CCCCC1)c1ccc(Cl)c(Cl)c1`, the result in [9] was inactive.

In the case of `NCCCC(=O)O` [GAMMA-AMINOBUTYRIC ACID], the Activity is 25% in test [1]; 83.1% in test [2]; 33% in test [10]; 8% in test [11]; 70% in test [13]; 7% in test [14]. In addition, the result in test [9], in test [12] and in [15] was Active.

For the molecule `O=C(O)C1CCCNC1` (stereo not given) [NIPECOTIC ACID], the Activity is on record as 58% in test [1], 84.2% in test [2] and 69% in test [7]. Also, the result in test [5] was Active.

Turning to `Cc1cccc(C#Cc2ccccc2)n1`, the Activity in test [16] worked out at 61.6%. The outcome in test [17], in [18] and in test [19] was Active.

Take `Cl.NCCc1ccc(O)c(O)c1` [DOPAMINE HYDROCHLORIDE]: the Activity in test [1] is on record as 25%.

In the case of `CN1CC(=O)NC1=N` [CREATININE], the Activity in [1] was found to be 58%; in test [2], 123.2%; in test [7] it was 69%. Besides, the outcome in test [5] was Active.

In the case of `O=c1cc(CO)occ1O` [KOJIC ACID], the Activity in test [1] is listed as 25%; in test [16] it was 73.06%.

Turning to `Cl.Cl.NNCc1cccc(O)c1`, the Activity in test [1] was found to be 67%.

As for `CC(=O)N[C@@H](CS)C(=O)O` [ACETYLCYSTEINE], the Activity in test [1] turned out to be 67%.
